Measurements taken from ChEMBL document CHEMBL1201862, “PubChem BioAssay data set” (2004).
Active and inactive are the calls of the source.

Experiments:
Phospholipase A2 = Phospholipase A2 (Homo sapiens, UniProt P04054); format: functional;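 further: confirmatory dose-response counterscreen on phospholipase A2, testing hits that came from an ultra-high-throughput screen for ATG4B inhibitors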
Genome polyprotein = Genome polyprotein (dengue virus type 2, UniProt P29990); assay: Dengue-2 NS5 methyltransferase inhibitors, primary screen, biochemical, confirmation dose response (AID 588689); format: functional
Caspase-6 = target: T1, Caspase-6 (Homo sapiens, UniProt P55212); assay: human caspase-6 inhibitors, dose response, biochemical, VEID-R110 fluorescence, cherry-pick (AID 720632)
T1 sequence (P55212 whole entry): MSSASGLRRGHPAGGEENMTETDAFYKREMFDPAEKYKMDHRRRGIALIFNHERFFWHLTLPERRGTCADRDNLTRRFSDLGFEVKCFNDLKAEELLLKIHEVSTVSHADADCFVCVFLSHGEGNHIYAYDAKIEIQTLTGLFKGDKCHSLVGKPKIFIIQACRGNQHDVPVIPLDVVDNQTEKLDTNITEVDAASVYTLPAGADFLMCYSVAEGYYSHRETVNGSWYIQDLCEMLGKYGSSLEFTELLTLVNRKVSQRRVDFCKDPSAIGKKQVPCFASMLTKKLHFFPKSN

[1] = C. albicans growth with fluconazole, confirmation, fluorescence, retest (AID 2467); format: functional, cell-based
cells = format: functional, cell-based
INS1 = assay: beta cell apoptosis inhibitors, cytokine rescue, dose response, luminescence, retest (AID 449756); format: functional, cell-based; details: Rattus norvegicus;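 further: cell death triggered by IL-1 beta plus TNF-alpha plus IFN-gamma mixture; protective hits raise ATP signal compared with cytokine alone wells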
[2] = target: Peroxisome proliferator-activated receptor gamma/Nuclear receptor corepressor 2 (Homo sapiens, UniProt P37231+Q9Y618); format: functional
[3] = cytotoxicity in HEK-293T cells, dose response, cytotoxicity control for TCR NF-kB inhibitor project, luminescence, T-cell screen hits (AID 489026); format: functional, cell-based;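 further: cells exposed to compound about 14 hours before the viability readout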
[4] = target: T2, Replicative DNA helicase DnaB (Mycobacterium tuberculosis, UniProt P9WMR3); assay: DnaB Intein secondary assay Measured in Biochemical System Using Plate Reader - 2047-04_Inhibitor_Dose_DryPowder_Activity. [Related pubchem assays (depositor defined):AID2223]
T2 sequence (P9WMR3 whole entry): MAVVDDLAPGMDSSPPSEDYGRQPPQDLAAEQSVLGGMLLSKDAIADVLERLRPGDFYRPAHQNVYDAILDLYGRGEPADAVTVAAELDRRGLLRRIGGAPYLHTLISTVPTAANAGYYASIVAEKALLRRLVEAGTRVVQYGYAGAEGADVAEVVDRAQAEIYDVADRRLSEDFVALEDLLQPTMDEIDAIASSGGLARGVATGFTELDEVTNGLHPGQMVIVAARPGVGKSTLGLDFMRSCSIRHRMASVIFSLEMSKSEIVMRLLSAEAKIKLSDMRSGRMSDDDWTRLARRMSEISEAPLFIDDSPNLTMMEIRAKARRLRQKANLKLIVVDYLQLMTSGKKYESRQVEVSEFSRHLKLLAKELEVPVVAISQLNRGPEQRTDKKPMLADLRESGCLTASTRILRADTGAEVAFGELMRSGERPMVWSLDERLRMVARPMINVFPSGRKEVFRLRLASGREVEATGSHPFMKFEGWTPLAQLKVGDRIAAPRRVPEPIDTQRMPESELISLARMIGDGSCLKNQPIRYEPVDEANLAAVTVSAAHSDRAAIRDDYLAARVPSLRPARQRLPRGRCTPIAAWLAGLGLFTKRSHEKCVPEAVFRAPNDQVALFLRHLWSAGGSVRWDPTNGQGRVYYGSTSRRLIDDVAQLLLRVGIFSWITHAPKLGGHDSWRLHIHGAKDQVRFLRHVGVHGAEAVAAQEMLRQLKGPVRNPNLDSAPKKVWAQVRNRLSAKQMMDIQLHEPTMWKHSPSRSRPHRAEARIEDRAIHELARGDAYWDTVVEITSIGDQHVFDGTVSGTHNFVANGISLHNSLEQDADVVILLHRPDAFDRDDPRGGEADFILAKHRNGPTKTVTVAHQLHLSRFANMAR

[5] = MDA-MB-231 cell growth inhibition, dose response, cytotoxicity control for RAD54 inhibitor project, CellTiter-Glo luminescence, cherry-pick (AID 651692); format: functional, cell-based
[6] = target: T3, DNA repair and recombination protein RAD54-like (Homo sapiens, UniProt Q92698); assay: inhibitors of human RAD54 branch migration, confirmation, biochemical, fluorescence, cherry-picked samples, dose series (AID 651657); format: functional
T3 sequence (Q92698 whole entry): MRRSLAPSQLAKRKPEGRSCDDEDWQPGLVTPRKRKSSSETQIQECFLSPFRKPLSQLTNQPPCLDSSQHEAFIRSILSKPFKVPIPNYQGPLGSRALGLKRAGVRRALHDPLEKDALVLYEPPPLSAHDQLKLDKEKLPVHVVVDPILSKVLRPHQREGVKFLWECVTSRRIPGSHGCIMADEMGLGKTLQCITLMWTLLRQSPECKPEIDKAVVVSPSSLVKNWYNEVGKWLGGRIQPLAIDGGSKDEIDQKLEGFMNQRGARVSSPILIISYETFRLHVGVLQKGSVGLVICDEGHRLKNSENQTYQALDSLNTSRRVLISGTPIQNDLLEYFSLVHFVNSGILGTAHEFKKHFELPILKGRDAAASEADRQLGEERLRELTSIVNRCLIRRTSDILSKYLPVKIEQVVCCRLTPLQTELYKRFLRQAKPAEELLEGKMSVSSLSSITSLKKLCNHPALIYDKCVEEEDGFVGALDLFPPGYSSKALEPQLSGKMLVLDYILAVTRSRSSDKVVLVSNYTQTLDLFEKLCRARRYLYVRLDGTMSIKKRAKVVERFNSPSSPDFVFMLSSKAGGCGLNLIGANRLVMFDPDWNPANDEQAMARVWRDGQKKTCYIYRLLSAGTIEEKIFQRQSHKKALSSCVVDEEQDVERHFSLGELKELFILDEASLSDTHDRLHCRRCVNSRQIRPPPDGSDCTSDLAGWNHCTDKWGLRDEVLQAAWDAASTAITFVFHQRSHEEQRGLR

[7] = target: Protein disulfide-isomerase A6 (Homo sapiens, UniProt Q15084); assay: inhibitors of ERp5-mediated insulin aggregation, dose response, biochemical, turbidity, absorbance 650 nm, cherry-picked samples (AID 720566)
[8] = LGR2 antagonists, dose response, cell-based, HEK293, CRE-luciferase reporter, cherry pick, set 2 (AID 743343); format: functional;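 further: transfected cells were stimulated with diluted bursicon conditioned medium after compound addition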
[9] = target: Sphingosine 1-phosphate receptor 2 (Homo sapiens, UniProt O95136); assay: Dose Response Cell Based Assay for Antagonists of the S1P2 Receptor. [Related pubchem assays: 856, 736 ]; format: functional
BJ [10] = assay: cytotoxicity toward BJ-TERT fibroblasts, dose response, cell-based, RAS-independent, luminescence (AID 1933); format: functional; details: Homo sapiens
BJ [11] = assay: cytotoxicity toward Ras-transformed BJeLR fibroblasts, dose response, cell-based, alamar blue fluorescence, cherrypicked samples (AID 2631); format: functional; details: Homo sapiens;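 further: confirmatory dose-response assay in RAS-dependent BJ fibroblasts engineered with TERT, LT and ST, with cytotoxicity read by fluorescence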

Chain of Phospholipase A2 (P04054 whole entry): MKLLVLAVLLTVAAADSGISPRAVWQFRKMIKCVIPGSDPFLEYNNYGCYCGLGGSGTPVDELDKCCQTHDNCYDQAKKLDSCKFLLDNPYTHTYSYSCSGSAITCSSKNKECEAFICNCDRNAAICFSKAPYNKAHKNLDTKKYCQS
Chain of Peroxisome proliferator-activated receptor gamma/Nuclear receptor corepressor 2 (P37231 whole entry): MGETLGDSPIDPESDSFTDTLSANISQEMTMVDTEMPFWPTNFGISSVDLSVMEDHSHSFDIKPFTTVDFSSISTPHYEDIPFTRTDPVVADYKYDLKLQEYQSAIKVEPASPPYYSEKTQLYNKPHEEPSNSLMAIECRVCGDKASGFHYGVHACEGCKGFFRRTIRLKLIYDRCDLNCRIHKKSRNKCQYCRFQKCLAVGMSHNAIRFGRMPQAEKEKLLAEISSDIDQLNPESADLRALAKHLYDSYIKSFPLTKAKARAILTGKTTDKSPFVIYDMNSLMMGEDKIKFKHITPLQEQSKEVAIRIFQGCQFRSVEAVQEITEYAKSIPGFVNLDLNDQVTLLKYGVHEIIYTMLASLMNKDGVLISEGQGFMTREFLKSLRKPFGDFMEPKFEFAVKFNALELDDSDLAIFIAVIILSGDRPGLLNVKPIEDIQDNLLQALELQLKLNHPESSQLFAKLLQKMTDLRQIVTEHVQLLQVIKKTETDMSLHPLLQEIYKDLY
Chain of Peroxisome proliferator-activated receptor gamma/Nuclear receptor corepressor 2 (Q9Y618 whole entry): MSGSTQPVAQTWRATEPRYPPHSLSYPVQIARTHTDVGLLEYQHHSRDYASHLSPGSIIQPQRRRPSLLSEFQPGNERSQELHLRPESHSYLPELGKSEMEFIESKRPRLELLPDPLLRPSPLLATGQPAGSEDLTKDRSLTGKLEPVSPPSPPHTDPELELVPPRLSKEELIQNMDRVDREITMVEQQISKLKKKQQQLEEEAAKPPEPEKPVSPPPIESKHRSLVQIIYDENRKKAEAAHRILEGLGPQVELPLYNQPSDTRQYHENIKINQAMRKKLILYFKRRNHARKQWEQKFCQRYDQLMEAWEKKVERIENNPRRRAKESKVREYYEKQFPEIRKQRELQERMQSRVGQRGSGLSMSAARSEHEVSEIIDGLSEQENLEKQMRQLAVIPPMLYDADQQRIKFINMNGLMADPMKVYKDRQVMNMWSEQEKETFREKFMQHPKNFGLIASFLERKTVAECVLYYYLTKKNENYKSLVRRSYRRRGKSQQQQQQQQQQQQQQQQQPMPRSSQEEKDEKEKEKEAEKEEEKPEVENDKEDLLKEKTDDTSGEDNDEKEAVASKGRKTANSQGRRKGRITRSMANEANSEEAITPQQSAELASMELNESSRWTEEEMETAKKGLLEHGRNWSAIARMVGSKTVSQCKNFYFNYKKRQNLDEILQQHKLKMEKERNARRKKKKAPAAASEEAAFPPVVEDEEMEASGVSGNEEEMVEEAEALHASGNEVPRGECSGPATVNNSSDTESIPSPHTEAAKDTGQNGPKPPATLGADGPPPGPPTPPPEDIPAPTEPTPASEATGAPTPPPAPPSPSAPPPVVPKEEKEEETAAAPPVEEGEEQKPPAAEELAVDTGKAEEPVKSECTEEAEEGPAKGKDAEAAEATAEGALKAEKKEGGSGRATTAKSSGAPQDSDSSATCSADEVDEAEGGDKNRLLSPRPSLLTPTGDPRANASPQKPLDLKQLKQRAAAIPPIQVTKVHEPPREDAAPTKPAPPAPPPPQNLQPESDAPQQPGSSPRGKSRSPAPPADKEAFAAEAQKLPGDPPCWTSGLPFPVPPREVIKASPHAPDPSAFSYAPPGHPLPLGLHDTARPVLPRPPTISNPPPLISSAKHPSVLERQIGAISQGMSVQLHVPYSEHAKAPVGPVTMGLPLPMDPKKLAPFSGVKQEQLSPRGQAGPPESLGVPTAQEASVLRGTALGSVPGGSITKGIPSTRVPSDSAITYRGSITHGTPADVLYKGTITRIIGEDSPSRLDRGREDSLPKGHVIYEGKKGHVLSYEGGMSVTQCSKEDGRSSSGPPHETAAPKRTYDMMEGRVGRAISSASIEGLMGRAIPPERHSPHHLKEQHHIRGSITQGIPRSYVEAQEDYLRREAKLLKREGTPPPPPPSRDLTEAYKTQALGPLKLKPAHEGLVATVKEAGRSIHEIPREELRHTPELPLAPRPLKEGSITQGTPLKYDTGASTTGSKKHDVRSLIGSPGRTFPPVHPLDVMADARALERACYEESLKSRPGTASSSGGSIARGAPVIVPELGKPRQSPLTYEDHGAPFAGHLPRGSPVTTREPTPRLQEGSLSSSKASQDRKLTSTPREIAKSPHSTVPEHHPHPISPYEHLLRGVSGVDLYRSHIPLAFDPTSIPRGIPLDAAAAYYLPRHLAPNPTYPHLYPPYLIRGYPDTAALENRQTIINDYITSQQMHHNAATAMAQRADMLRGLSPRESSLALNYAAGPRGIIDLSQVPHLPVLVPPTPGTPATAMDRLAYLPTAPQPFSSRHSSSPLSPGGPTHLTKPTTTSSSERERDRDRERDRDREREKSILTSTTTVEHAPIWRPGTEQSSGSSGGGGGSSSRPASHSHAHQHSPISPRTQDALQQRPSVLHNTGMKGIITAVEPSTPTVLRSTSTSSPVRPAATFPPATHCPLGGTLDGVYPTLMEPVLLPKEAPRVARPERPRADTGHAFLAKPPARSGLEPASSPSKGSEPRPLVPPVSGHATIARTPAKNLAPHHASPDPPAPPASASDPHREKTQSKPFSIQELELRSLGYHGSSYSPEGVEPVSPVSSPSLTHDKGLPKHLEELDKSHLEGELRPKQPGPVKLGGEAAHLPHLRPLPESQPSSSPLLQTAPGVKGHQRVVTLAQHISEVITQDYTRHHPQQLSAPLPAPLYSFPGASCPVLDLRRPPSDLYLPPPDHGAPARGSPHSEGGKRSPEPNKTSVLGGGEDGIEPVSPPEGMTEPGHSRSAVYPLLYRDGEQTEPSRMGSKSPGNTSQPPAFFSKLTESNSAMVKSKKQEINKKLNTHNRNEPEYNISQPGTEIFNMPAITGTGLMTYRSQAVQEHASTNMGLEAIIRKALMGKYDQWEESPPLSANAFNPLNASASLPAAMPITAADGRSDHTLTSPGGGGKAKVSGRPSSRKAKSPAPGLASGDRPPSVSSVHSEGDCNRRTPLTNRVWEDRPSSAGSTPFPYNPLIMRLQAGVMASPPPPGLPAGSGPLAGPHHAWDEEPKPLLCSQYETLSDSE
Chain of Sphingosine 1-phosphate receptor 2 (O95136 whole entry): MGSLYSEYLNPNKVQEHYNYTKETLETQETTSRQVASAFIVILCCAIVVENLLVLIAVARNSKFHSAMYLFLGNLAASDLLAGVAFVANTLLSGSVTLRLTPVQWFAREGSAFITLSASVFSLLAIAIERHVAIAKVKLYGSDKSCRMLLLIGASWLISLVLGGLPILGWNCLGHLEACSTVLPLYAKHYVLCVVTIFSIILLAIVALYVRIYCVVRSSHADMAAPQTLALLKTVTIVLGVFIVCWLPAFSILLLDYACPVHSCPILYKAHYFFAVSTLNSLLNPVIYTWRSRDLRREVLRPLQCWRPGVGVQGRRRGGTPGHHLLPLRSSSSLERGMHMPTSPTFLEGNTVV
Chain of Genome polyprotein (P29990 2492-3391 limits assumed): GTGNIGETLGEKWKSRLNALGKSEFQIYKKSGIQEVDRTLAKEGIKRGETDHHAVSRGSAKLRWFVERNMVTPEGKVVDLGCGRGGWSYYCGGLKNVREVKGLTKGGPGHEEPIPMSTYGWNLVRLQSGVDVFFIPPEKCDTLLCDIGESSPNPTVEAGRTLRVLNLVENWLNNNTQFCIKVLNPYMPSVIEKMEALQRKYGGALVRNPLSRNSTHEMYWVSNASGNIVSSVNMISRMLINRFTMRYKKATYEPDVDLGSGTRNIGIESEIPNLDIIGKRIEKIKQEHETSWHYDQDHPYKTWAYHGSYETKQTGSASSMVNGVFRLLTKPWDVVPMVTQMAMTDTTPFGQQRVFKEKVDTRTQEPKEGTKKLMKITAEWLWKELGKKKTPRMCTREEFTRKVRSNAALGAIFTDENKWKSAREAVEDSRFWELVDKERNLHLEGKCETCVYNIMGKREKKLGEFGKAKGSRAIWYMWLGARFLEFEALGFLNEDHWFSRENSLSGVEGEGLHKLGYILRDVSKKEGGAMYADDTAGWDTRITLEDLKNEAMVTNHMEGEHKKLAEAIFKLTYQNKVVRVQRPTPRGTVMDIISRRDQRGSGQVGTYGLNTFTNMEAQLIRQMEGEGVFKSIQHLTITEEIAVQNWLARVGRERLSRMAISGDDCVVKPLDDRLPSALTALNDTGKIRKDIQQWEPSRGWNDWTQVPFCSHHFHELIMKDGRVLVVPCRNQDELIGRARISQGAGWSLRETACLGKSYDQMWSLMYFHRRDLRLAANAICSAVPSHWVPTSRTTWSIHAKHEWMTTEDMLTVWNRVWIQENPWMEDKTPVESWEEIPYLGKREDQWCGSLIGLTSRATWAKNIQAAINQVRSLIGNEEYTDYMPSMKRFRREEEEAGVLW
Chain of Protein disulfide-isomerase A6 (Q15084 whole entry): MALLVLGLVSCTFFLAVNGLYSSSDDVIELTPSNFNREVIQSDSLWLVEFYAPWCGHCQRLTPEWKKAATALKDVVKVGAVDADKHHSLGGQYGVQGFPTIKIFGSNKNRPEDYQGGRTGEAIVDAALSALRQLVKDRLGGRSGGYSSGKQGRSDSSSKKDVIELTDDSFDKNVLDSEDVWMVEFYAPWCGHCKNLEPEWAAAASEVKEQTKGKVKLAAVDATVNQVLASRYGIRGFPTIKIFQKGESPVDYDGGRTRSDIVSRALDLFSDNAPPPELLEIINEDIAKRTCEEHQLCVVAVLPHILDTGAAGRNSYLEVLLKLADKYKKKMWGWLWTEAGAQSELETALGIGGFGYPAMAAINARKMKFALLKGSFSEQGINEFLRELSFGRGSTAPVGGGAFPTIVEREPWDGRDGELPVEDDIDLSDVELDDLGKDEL

COc1ccc(NS(=O)(=O)c2ccc3c(c2)[C@H]2C=CC[C@H]2[C@@H](c2ccc(C(=O)O)cc2)N3)cc1
IC50 (Phospholipase A2): 6870 nM (active) | IC50 (Genome polyprotein): 44300 nM (active) | AC50 (Caspase-6): 4430 nM (active)

CCC(=O)NC(c1ccc(OC)cc1)c1cc(Cl)c2cccnc2c1O (stereo unspecified)
EC50 [1]: 769 nM (active) | EC50 (cells): > 350000 nM (not active) | AC50 (INS1): 1080 nM (active)

Cn1nc(-c2ccccn2)nc2c(=O)n(C)c(=O)nc1-2
IC50 [2]: 4690 nM (active) | IC50 [3]: 4260 nM (active) | AC50 [4]: 503 nM (active) | IC50 (Phospholipase A2): > 80000 nM (inactive) | AC50 (INS1): 1920 nM (active) | AC50 [5]: 3790 nM (active) | AC50 [6]: 1220 nM (active) | AC50 (Caspase-6): 219 nM (active) | AC50 [7]: 1490 nM (active) | AC50 [8]: 2570 nM (active)

CCCCCCCCCCn1c2c(c(=N)c3c1CCC3)CCC2
IC50 [9]: 2940 nM (active) | EC50 (BJ [10]): 3260 nM (inconclusive) | EC50 [1]: 779 nM (active) | IC50 [3]: 38400 nM (inactive) | EC50 (BJ [11]): 706 nM (active)
